Measurements published in PMC12775434, “Ultra-large virtual screening unveils potent agonists of the neuromodulatory orphan receptor GPR139” (Nature Communications, 2025).
Values joined by “and” are separate entries in the source; they are usually repeats but may differ in a detail not shown here. Identical values can stand only once.

Biological target: T1, GPR139 (Homo sapiens, UniProt Q6DWJ6)
T1 sequence (Q6DWJ6 1-353): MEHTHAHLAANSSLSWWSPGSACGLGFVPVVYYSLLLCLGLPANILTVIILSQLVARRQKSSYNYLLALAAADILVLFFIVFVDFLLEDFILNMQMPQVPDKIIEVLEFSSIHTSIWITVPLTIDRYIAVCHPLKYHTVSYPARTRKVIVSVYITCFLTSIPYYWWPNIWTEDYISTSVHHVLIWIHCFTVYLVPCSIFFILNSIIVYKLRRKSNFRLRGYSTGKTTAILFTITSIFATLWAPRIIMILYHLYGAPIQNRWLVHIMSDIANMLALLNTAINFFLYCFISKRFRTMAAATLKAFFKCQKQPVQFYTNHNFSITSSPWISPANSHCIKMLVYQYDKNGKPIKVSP
Assay: Ca2+ mobilization assay, HEK293A cells transiently expressing GPR139
Format: cell-based
Conditions: for Emax: HEK293-A, normalized to JNJ-63533054 (JNJ(S)); for Emax / EC50: HEK293A transient; for EC50: Supplementary Table 6, read-out: pEC50 Ca2+ (converted); for Ca2+ signal (% of JNJ-63533054): replicate experiments
Procedure: Primary screening and pharmacological characterization of compounds were performed using a CHO-K1 cell line that stably expresses human GPR139 (GPR139-CHOk1). The GPR139-CHOk1 cell line was kindly provided by H. Lundbeck A/S, Denmark[24]. GPR139-CHOk1 cells were grown in Ham’s F-12 Kaighn’s Modification Medium (ThermoFisher #21127030) supplemented with 10% dialyzed fetal bovine serum (US origin, ThermoFisher #26400044), 100 units/mL Penicillin-Streptomycin (ThermoFisher #15140122), and 1 mg/mL Geneticin (ThermoFisher #11811031). […] M1R-CHOk1 cells were purchased from The Missouri S&T cDNA Resource Center (#CEM100TN00). M1R-CHOk1 cells were grown in Ham’s F12 Medium (ThermoFisher #21765029) supplemented with 10% fetal bovine serum (Brazilian origin, ThermoFisher #10270106), 100 units/mL Penicillin-Streptomycin, and 0.25 mg/mL Geneticin. HEK293A cells transiently transfected with GPR139 were used for additional pharmacological assessment of signaling pathways activated by GPR139. HEK239A cells were generously provided by Dr. Asuka Inoue, Tohoku University, Japan. HEK293A cells were grown in Dulbecco’s Modified Eagle Medium (ThermoFisher #31966047) supplemented with 10% dialyzed fetal bovine serum and 100 units/mL Penicillin-Streptomycin. Cell lines were maintained at 37 °C in humidified incubator equilibrated with 5% CO2.
30,000 GPR139- or M1R-CHOk1 cells/well were seeded in black clear bottom tissue culture treated 96-well plates (Greiner #655090) and grown for 20–24 h. Cells were washed with HEPES buffer (Hank’s Balanced Salt Solution (HBBS) supplemented with 20 mM HEPES, 1 mM MgCl2, and 1 mM CaCl2; pH 7.4). Cells were loaded with 50 µL of 2 µM Fluo-4 AM dye (ThermoFisher #F14202) in HEPES buffer supplemented with 2.5 mM probenecid and 0.01% Pluronic F-68 (ThermoFisher #24040032) for 1 h at 37 °C. Cells were washed with HEPES buffer. 50 µL HEPES buffer supplemented with 2.5 mM probenecid was added, and the cells were incubated for 10 min at 37 °C before measurement. 50 µL test compounds diluted in HEPES buffer from DMSO stocks (final DMSO concentration of maximally 0.3%) were added automatically after baseline measurements. The intracellular calcium mobilization was measured on a FlexStation 3 Multimode Microplate Reader (Molecular Devices) at 37 °C with filters for excitation of 485 nm and emission of 525 nm.
HEK293A cells were reverse-transfected with human GPR139 for Ca^2+ mobilization experiments with transiently expressed GPR139. The construct has been generated and described previously by Nøhr et al.. DNA and Lipofectamine 2000 Transfection Reagent (ThermoFisher #11668019) were separately diluted in Opti-MEM I Reduced Serum Medium (ThermoFisher #31985070). 10 ng GPR139 DNA and 250 nL Lipofectamine were used for each well. The dilutions were incubated at room temperature for 5 min. Then, DNA and Lipofectamine dilutions were combined in 1:1 volumetric ratio and incubated at room temperature for 20 min to obtain the transfection solutions. 10 µL transfection solution and 20,000 cells in 100 µL growth medium were distributed in each well of black clear bottom tissue culture treated 96-well plates that were previously coated with poly-D-lysine (Sigma-Aldrich #P0899). Cells were grown for approximately 48 h. A calcium mobilization assay was performed as described.
Pharmacological data and statistical analyses were performed in GraphPad Prism v9–10 (Graphpad Software Inc., San Diego, CA), which are also specifically described in the figure and table legends. The functional assay responses were normalized to buffer (0%) and Lundbeck Cmp 1a or JNJ-63533054 (100%), for Ca^2+ and IP1 experiments in the GPR139-CHOk1 stable cell line or Ca^2+, G protein activation, and arrestin-3 recruitment experiments in the HEK293A cells transiently transfected with GPR139, respectively. Data are from at least three independent experiments, unless stated otherwise. […]

Row | SMILES | Emax [%] | EC50 [nM] | Ca2+ signal (% of JNJ-63533054) (log [Compound] M -5.0) | Ca2+ signal (% of JNJ-63533054) (log [Compound] M -5.5) | Ca2+ signal (% of JNJ-63533054) (log [Compound] M -6.0) | Ca2+ signal (% of JNJ-63533054) (log [Compound] M -6.5) | Ca2+ signal (% of JNJ-63533054) (log [Compound] M -7.0) | Ca2+ signal (% of JNJ-63533054) (log [Compound] M -7.5) | Ca2+ signal (% of JNJ-63533054) (log [Compound] M -8.0) | Ca2+ signal (% of JNJ-63533054) (log [Compound] M -8.5) | Ca2+ signal (% of JNJ-63533054) (log [Compound] M -9.0) | Ca2+ signal (% of JNJ-63533054) (log [Compound] M -5.0, listed as JNJ (S)) | Ca2+ signal (% of JNJ-63533054) (log [Compound] M -5.5, listed as JNJ (S)) | Ca2+ signal (% of JNJ-63533054) (log [Compound] M -6.0, listed as JNJ (S)) | Ca2+ signal (% of JNJ-63533054) (log [Compound] M -6.5, listed as JNJ (S)) | Ca2+ signal (% of JNJ-63533054) (log [Compound] M -7.0, listed as JNJ (S)) | Ca2+ signal (% of JNJ-63533054) (log [Compound] M -7.5, listed as JNJ (S)) | Ca2+ signal (% of JNJ-63533054) (log [Compound] M -8.0, listed as JNJ (S)) | Ca2+ signal (% of JNJ-63533054) (log [Compound] M -8.5, listed as JNJ (S)) | Ca2+ signal (% of JNJ-63533054) (log [Compound] M -9.0, listed as JNJ (S))
1 | Cc1cscc1-c1nc(CC(=O)N[C@H](C)c2ccccc2)no1 [1.1(R)] | 139 ± 24 | 398 | 181 % of JNJ-63533054 and 86 % of JNJ-63533054 and 180 % of JNJ-63533054 | 143 % of JNJ-63533054 and 96 % of JNJ-63533054 and 154 % of JNJ-63533054 | 90 % of JNJ-63533054 and 77 % of JNJ-63533054 and 95 % of JNJ-63533054 | 70 % of JNJ-63533054 and 52 % of JNJ-63533054 and 66 % of JNJ-63533054 | 15 % of JNJ-63533054 and 41 % of JNJ-63533054 and 28 % of JNJ-63533054 | -6.33 % of JNJ-63533054 and 15 % of JNJ-63533054 and 7 % of JNJ-63533054 | -9 % of JNJ-63533054 and 14 % of JNJ-63533054 and -7 % of JNJ-63533054 | 4 % of JNJ-63533054 and 2.33 % of JNJ-63533054 and -0.667 % of JNJ-63533054 | 8 % of JNJ-63533054 and 0.333 % of JNJ-63533054 and -15 % of JNJ-63533054 |  |  |  |  |  |  |  |  | 
2 | Cc1cscc1-c1nc(CC(=O)N[C@@H](C)c2ccccc2)no1 [1.1(S)] | 146 ± 16 | 12.6 | 135 % of JNJ-63533054 and 150 % of JNJ-63533054 | 108 % of JNJ-63533054 and 167 % of JNJ-63533054 | 164 % of JNJ-63533054 and 119 % of JNJ-63533054 and 118 % of JNJ-63533054 | 143 % of JNJ-63533054 and 116 % of JNJ-63533054 and 108 % of JNJ-63533054 | 137 % of JNJ-63533054 and 106 % of JNJ-63533054 and 101 % of JNJ-63533054 | 103 % of JNJ-63533054 and 92 % of JNJ-63533054 and 129 % of JNJ-63533054 | 70 % of JNJ-63533054 and 74 % of JNJ-63533054 and 57 % of JNJ-63533054 | 28 % of JNJ-63533054 and 33 % of JNJ-63533054 and 37 % of JNJ-63533054 | 29 % of JNJ-63533054 and 19 % of JNJ-63533054 and 13 % of JNJ-63533054 |  |  |  |  |  |  |  |  | 
3 | C[C@@H](NC(=O)CNC(=O)c1cccc(Cl)c1)c1ccccc1 [JNJ(R), reference compound] | 101 ± 18 | 1260 | 95 % of JNJ-63533054 and 63 % of JNJ-63533054 and 134 % of JNJ-63533054 | 58 % of JNJ-63533054 and 81 % of JNJ-63533054 (2×) | 27 % of JNJ-63533054 and 52 % of JNJ-63533054 and 38 % of JNJ-63533054 | 14 % of JNJ-63533054 and 29 % of JNJ-63533054 and 4.33 % of JNJ-63533054 | 7 % of JNJ-63533054 and 9 % of JNJ-63533054 and -10 % of JNJ-63533054 | 5 % of JNJ-63533054 and 9 % of JNJ-63533054 and -13 % of JNJ-63533054 | -3.33 % of JNJ-63533054 and 8 % of JNJ-63533054 and -14 % of JNJ-63533054 | -0.667 % of JNJ-63533054 and 11 % of JNJ-63533054 and -10 % of JNJ-63533054 | -2.67 % of JNJ-63533054 and 15 % of JNJ-63533054 and -6 % of JNJ-63533054 |  |  |  |  |  |  |  |  | 
4 | CC(NC(=O)CNC(=O)c1cccc(Cl)c1)c1ccccc1 (centres unmarked) [JNJ-63533054, reference compound] | 133 ± 14 | 15.8 |  |  |  |  |  |  |  |  |  | 174 % of JNJ-63533054 and 107 % of JNJ-63533054 and 106 % of JNJ-63533054 | 140 % of JNJ-63533054 and 98 % of JNJ-63533054 and 168 % of JNJ-63533054 | 143 % of JNJ-63533054 and 109 % of JNJ-63533054 and 138 % of JNJ-63533054 | 110 % of JNJ-63533054 and 107 % of JNJ-63533054 and 98 % of JNJ-63533054 | 101 % of JNJ-63533054 and 88 % of JNJ-63533054 and 92 % of JNJ-63533054 | 90 % of JNJ-63533054 and 115 % of JNJ-63533054 and 68 % of JNJ-63533054 | 51 % of JNJ-63533054 and 82 % of JNJ-63533054 and 41 % of JNJ-63533054 | 37 % of JNJ-63533054 and 28 % of JNJ-63533054 and 33 % of JNJ-63533054 | 13 % of JNJ-63533054 and 3.67 % of JNJ-63533054 and 12 % of JNJ-63533054
